Reference: ChEMBL document CHEMBL1208675, “Validated QSAR analysis of some diaryl substituted pyrazoles as CCR2 inhibitors by various linear and nonlinear multivariate chemometrics methods” (Eur J Med Chem, 2010)

molecular target: C-C chemokine receptor type 2 (Homo sapiens, UniProt P41597); experiment: Inhibition of CCR2
Sequence (P41597 whole entry): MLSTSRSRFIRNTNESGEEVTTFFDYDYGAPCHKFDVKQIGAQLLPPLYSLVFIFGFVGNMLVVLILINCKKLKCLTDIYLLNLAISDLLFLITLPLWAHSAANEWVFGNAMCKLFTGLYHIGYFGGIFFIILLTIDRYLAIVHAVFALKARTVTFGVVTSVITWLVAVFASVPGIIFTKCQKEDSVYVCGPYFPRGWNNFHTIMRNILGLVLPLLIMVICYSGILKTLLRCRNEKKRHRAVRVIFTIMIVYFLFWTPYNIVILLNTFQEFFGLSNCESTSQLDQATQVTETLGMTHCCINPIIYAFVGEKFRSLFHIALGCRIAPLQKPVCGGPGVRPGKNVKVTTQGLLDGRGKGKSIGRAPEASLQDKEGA

Structure (SMILES) | IC50
COC(=O)[C@H](Cc1cnc[nH]1)NC(=O)CCc1cc(-c2cc(Cl)cc(Cl)c2)nn1-c1ccc2ccccc2c1 | 2.84 µM
O=C(CCc1cc(-c2cc(Cl)cc(Cl)c2)nn1-c1ccc2ccccc2c1)NCCCc1ccc2c(n1)NCCC2 | 9.33 µM
O=C(CCc1cc(-c2cc(Cl)cc(Cl)c2)nn1-c1ccc2ccccc2c1)NCCCc1ccncc1 | 1.12 µM
CCN(CC)C(C)CCCNC(=O)CCc1cc(-c2cc(Cl)cc(Cl)c2)nn1-c1ccc2ccccc2c1 (centres undefined) | 0.108 µM
CCN(CC)CCCC(C)NC(=O)CCCc1cc(-c2cc(Cl)cc(Cl)c2)nn1-c1ccc2ccccc2c1 (centres undefined) | 6.47 µM

Continued by falling IC50, values first:

IC50 | Structure (SMILES)
1.8 µM | CN(C)CCCCNC(=O)CCc1cc(-c2cc(Cl)cc(Cl)c2)nn1-c1ccc2ccccc2c1
1.22 µM | CCN(CC)CCCCNC(=O)CCc1cc(-c2cc(Cl)cc(Cl)c2)nn1-c1ccc2ccccc2c1
0.052 µM | CCCCC(CCCN(CC)CC)NC(=O)CCOc1cc(-c2cc(Cl)cc(Cl)c2)nn1-c1ccc2ccccc2c1 (centres undefined)
0.043 µM | COC(=O)[C@H](CCCN=C(N)N)NC(=O)CCNCc1cc(-c2cc(Cl)cc(Cl)c2)nn1-c1ccc2ccccc2c1
